From the NIST ThermoML archive (doi:10.1016/j.jct.2012.12.007)

Test: xn = mol fraction of the nth substance listed
Conditions: 101.3 kPa, Liquid; for speed of sound: Sing-around technique in a fixed-path interferometer; for mass density: Vibrating tube method

CCOCCOCCOCC [diethylene glycol diethyl ether] + CCCCCCCCCCO
Conditions | mass density [kg/m3] | speed of sound [m/s]
293.15 K, x2 = 0.0632 | 901.86 | 1267.1
293.15 K, x2 = 0.1084 | 897.94 | 1272.6
293.15 K, x2 = 0.2052 | 889.79 | 1284.5
293.15 K, x2 = 0.294 | 882.49 | 1295.5
293.15 K, x2 = 0.393 | 874.57 | 1308.1
293.15 K, x2 = 0.4943 | 866.66 | 1321.4
293.15 K, x2 = 0.543 | 862.92 | 1327.9
293.15 K, x2 = 0.5932 | 859.11 | 1334.7
293.15 K, x2 = 0.6872 | 852.12 | 1348.1
293.15 K, x2 = 0.7863 | 844.92 | 1363
293.15 K, x2 = 0.8872 | 837.76 | 1378.8
293.15 K, x2 = 0.9441 | 833.82 | 1388.1
298.15 K, x2 = 0.0605 | 897.98 | 1247.8
298.15 K, x2 = 0.111 | 893.68 | 1254.1
298.15 K, x2 = 0.1588 | 889.69 | 1260.1
298.15 K, x2 = 0.2062 | 885.79 | 1266.1
298.15 K, x2 = 0.302 | 878.08 | 1278.3
298.15 K, x2 = 0.3947 | 870.77 | 1290.4
298.15 K, x2 = 0.504 | 862.39 | 1305
298.15 K, x2 = 0.592 | 855.8 | 1317.3
298.15 K, x2 = 0.6553 | 851.16 | 1326.4
298.15 K, x2 = 0.7443 | 844.72 | 1339.5
298.15 K, x2 = 0.7923 | 841.32 | 1347
298.15 K, x2 = 0.8362 | 838.23 | 1353.8
298.15 K, x2 = 0.8836 | 834.93 | 1361.4
298.15 K, x2 = 0.94 | 831.05 | 1370.4
303.15 K, x2 = 0.0605 | 893 | 1229.6
303.15 K, x2 = 0.1016 | 889.54 | 1234.8
303.15 K, x2 = 0.154 | 885.23 | 1241.6
303.15 K, x2 = 0.2064 | 880.99 | 1248.3
303.15 K, x2 = 0.2953 | 873.94 | 1260
303.15 K, x2 = 0.3846 | 867.02 | 1271.7
303.15 K, x2 = 0.5006 | 858.29 | 1287.6
303.15 K, x2 = 0.5369 | 855.6 | 1292.7
303.15 K, x2 = 0.6486 | 847.46 | 1308.7
303.15 K, x2 = 0.7409 | 840.9 | 1322.6
303.15 K, x2 = 0.7915 | 837.36 | 1330.4
303.15 K, x2 = 0.8318 | 834.56 | 1336.7
303.15 K, x2 = 0.8856 | 830.89 | 1345.4
303.15 K, x2 = 0.9364 | 827.44 | 1353.5

CCOCCOCCOCC [diethylene glycol diethyl ether] + CCCCO
Conditions | mass density [kg/m3] | speed of sound [m/s]
293.15 K, x2 = 0.1284 | 901.3 | 1262.2
293.15 K, x2 = 0.2205 | 896.11 | 1263.3
293.15 K, x2 = 0.319 | 889.85 | 1264.1
293.15 K, x2 = 0.3623 | 886.86 | 1264.3
293.15 K, x2 = 0.4157 | 882.92 | 1264.5
293.15 K, x2 = 0.4529 | 879.96 | 1264.4
293.15 K, x2 = 0.4963 | 876.35 | 1264.4
293.15 K, x2 = 0.5481 | 871.71 | 1264.3
293.15 K, x2 = 0.6523 | 861.3 | 1263.6
293.15 K, x2 = 0.7018 | 855.73 | 1263.3
293.15 K, x2 = 0.7934 | 844.15 | 1262.1
293.15 K, x2 = 0.8942 | 829.14 | 1260.2
293.15 K, x2 = 0.9397 | 821.36 | 1258.9
298.15 K, x2 = 0.1245 | 896.77 | 1242.5
298.15 K, x2 = 0.2149 | 891.76 | 1243.8
298.15 K, x2 = 0.3175 | 885.38 | 1244.9
298.15 K, x2 = 0.4078 | 879 | 1245.5
298.15 K, x2 = 0.4543 | 875.4 | 1245.6
298.15 K, x2 = 0.5047 | 871.25 | 1245.7
298.15 K, x2 = 0.5543 | 866.84 | 1245.7
298.15 K, x2 = 0.6137 | 861.13 | 1245.5
298.15 K, x2 = 0.6973 | 852.18 | 1245.3
298.15 K, x2 = 0.7951 | 840.07 | 1244.5
298.15 K, x2 = 0.8466 | 832.8 | 1243.9
298.15 K, x2 = 0.9449 | 816.86 | 1241.7
303.15 K, x2 = 0.0738 | 894.47 | 1223.5
303.15 K, x2 = 0.1419 | 890.96 | 1224.8
303.15 K, x2 = 0.218 | 886.73 | 1225.9
303.15 K, x2 = 0.302 | 881.57 | 1227
303.15 K, x2 = 0.3764 | 876.51 | 1227.7
303.15 K, x2 = 0.5002 | 866.9 | 1228.3
303.15 K, x2 = 0.5541 | 862.16 | 1228.4
303.15 K, x2 = 0.6056 | 857.29 | 1228.5
303.15 K, x2 = 0.6997 | 847.32 | 1228.4
303.15 K, x2 = 0.7961 | 835.44 | 1227.9
303.15 K, x2 = 0.8493 | 827.96 | 1227.4
303.15 K, x2 = 0.8896 | 821.8 | 1226.8
303.15 K, x2 = 0.9431 | 812.86 | 1225.8

CCOCCOCCOCC [diethylene glycol diethyl ether] + CO
Conditions | mass density [kg/m3] | speed of sound [m/s]
293.15 K, x2 = 0.1141 | 904.9 | 1259.4
293.15 K, x2 = 0.1553 | 904.05 | 1259.4
293.15 K, x2 = 0.1987 | 903.07 | 1259.2
293.15 K, x2 = 0.249 | 901.79 | 1258.6
293.15 K, x2 = 0.2972 | 900.38 | 1257.7
293.15 K, x2 = 0.3651 | 898.01 | 1255.9
293.15 K, x2 = 0.3841 | 897.27 | 1255.2
293.15 K, x2 = 0.4206 | 895.72 | 1253.7
293.15 K, x2 = 0.4696 | 893.32 | 1251.3
293.15 K, x2 = 0.5133 | 890.89 | 1248.6
293.15 K, x2 = 0.5624 | 887.61 | 1244.7
293.15 K, x2 = 0.6126 | 883.69 | 1240
293.15 K, x2 = 0.6545 | 879.81 | 1235.1
293.15 K, x2 = 0.698 | 875.07 | 1229
293.15 K, x2 = 0.7575 | 867.11 | 1218.6
293.15 K, x2 = 0.8037 | 859.25 | 1208.1
293.15 K, x2 = 0.8469 | 850.24 | 1196
293.15 K, x2 = 0.9023 | 835.03 | 1175.4
293.15 K, x2 = 0.9467 | 818.74 | 1153.6
298.15 K, x2 = 0.1296 | 900 | 1240
298.15 K, x2 = 0.1589 | 899.4 | 1239.9
298.15 K, x2 = 0.1917 | 898.67 | 1239.7
298.15 K, x2 = 0.2627 | 896.83 | 1239
298.15 K, x2 = 0.2904 | 896.02 | 1238.5
298.15 K, x2 = 0.3505 | 894.01 | 1237.1
298.15 K, x2 = 0.3925 | 892.41 | 1235.8
298.15 K, x2 = 0.4241 | 891.01 | 1234.4
298.15 K, x2 = 0.4639 | 889.09 | 1232.6
298.15 K, x2 = 0.5181 | 886.01 | 1229.3
298.15 K, x2 = 0.5637 | 882.97 | 1225.8
298.15 K, x2 = 0.6132 | 879.12 | 1221.2
298.15 K, x2 = 0.6207 | 878.44 | 1220.4
298.15 K, x2 = 0.6959 | 870.83 | 1210.9
298.15 K, x2 = 0.7434 | 864.68 | 1203
298.15 K, x2 = 0.8007 | 855.37 | 1190.8
298.15 K, x2 = 0.8481 | 845.46 | 1177.7
298.15 K, x2 = 0.9005 | 831.08 | 1158.6
298.15 K, x2 = 0.9476 | 813.97 | 1135.9
303.15 K, x2 = 0.1058 | 895.27 | 1221.5
303.15 K, x2 = 0.1571 | 894.27 | 1221.5
303.15 K, x2 = 0.1991 | 893.31 | 1221.4
303.15 K, x2 = 0.2309 | 892.58 | 1220.9
303.15 K, x2 = 0.2886 | 890.89 | 1220.4
303.15 K, x2 = 0.3249 | 889.71 | 1219.5
303.15 K, x2 = 0.3748 | 887.88 | 1218.2
303.15 K, x2 = 0.4216 | 885.91 | 1216.5
303.15 K, x2 = 0.473 | 883.4 | 1214.1
303.15 K, x2 = 0.5164 | 880.9 | 1211.5
303.15 K, x2 = 0.5681 | 877.47 | 1207.7
303.15 K, x2 = 0.6092 | 874.33 | 1204.1
303.15 K, x2 = 0.6548 | 870.07 | 1199
303.15 K, x2 = 0.6984 | 865.35 | 1193.3
303.15 K, x2 = 0.7448 | 859.28 | 1185.6
303.15 K, x2 = 0.8012 | 849.99 | 1173.9
303.15 K, x2 = 0.8484 | 840.19 | 1161.1
303.15 K, x2 = 0.9007 | 825.94 | 1142.6
303.15 K, x2 = 0.9489 | 808.25 | 1119.6
